Reference: patent US8198302B2 (OXiGENE, Inc., priority 2004, dated 2012)

Legend:
MHEC-5T tumors = assay: Reduction in tumor blood flow / functional tumor vessels (fluorescent beads); format: in vivo, mice; conditions: for reduction in tumor blood flow: 24 hr post-drug
Protocol: (§1) Catechols were dissolved in 50% DMSO (2 mg/kg) prior to intravenous (iv) administration (i.v.) to tumor-bearing mice. MHEC-5T tumors were established by subcutaneous injection of 0.5×10^6 cultured MHEC5-T cells (German Collection of Microorganisms and Cell Culture, Braunschweig, Germany) into the right flank of Fox Chase CB-17 severe combined immunodeficient (SCID) mice. Tumor grafts grew palpable within one week and reached the limited size (15×15 mm) within 10 days. Tumor bearing mice were injected intraperitoneally with saline control or various dosages of CA1P or CA4P after the transplanted tumor reached a size of 300 mm^3 (a size without development of necrosis). Twenty-four hours later they were injected with 0.25 ml of fluorescent FluoSphere beads (0.1 μm beads conjugated with blue fluorescent tag (F-8789, Molecular Probes, Eugene, Oreg.) and diluted 1:6 in physiological saline) in the tail vein, and sacrificed after 3 minutes. Tumors were then excised for cryosections. Cryosections of 8 μm thickness were directly examined under a fluorescent microscope. Functional blood vessels were indicated by blue fluorescence from injected microbeads. For quantification, three sections from three tumors treated in each group were examined and in each section, more than 70% of the area was automatically recorded with a microscopic digital camera at ×10 magnification. A computer program named Stage Pro (Media Cybernetics, Md.) was used to control the picture recording. Image analysis was performed with Image Plus software (Media Cybernetics, Md.). The results were expressed as vessel area per mm^2 in percentage of the control in Table 2.
as §1, with “The effect of CA1P on tumor blood flow was evaluated by quantifying the number of functional tumor vessels” for “Catechols were dissolved”, “treated murine tumors.” for “50% DMSO (2 mg/kg) prior to intravenous (iv) administration (i.v.) to tumor-bearing mice.”, “as in Example 4c.” for “by subcutaneous injection of 0.5×10^6 cultured MHEC5-T cells (German Collection of Microorganisms and Cell Culture, Braunschweig, Germany) into the right flank of Fox Chase CB-17 severe combined immunodeficient (SCID) mice. Tumor grafts grew palpable within one week and reached the limited size (15×15 mm) within 10 days.”, “MD)” for “Md.)”, “MD).” for “Md.).”, “control.” for “control in Table 2.”

tumor cells = assay: Tumor cell cytotoxicity, MTT assay; format: cell-based
Protocol: Exponentially growing tumor cells were treated with the following compounds for 24 hours. Insoluble compounds were formulated in a small amount (0.3%) of DMSO for biological evaluation. Cell viability was determined by the calorimetric MTT assay using 3(4,5-dimethylthiazol-2-yl)-2,5-diphenyl-2H-tetrazolium bromide according to well-established procedures (see Berridge, et al. (1996) for a general protocol of this type of assay).

[1] = Recovery of CA1 from plasma; format: in vitro ADME; conditions: in the presence of ascorbic acid in the extraction mixture
Description: In blood, the ortho catechol CA1 is susceptible to oxidation. […] The recovery of CA1 was resolved by incorporation of ascorbic acid as an antioxidant in the extraction mixture. In the presence of ascorbic acid the recovery of CA1 from plasma was increased to approximately 90%.

[2] = tested on: murine adenocarcinoma CaNT; assay: Functional vascular volume of tumor vessels (Hoechst 333342); format: in vivo, mice; conditions: 1 mg/kg i.p. (lowest dose), 24 hours
Protocol: The effect of CA1P on tumor blood flow was evaluated by quantification of the functional volume of tumor vessels in treated murine tumors using a procedure previously described in detail and incorporated by reference herein (Smith K A, Br. J. Cancer, 57:247-253, 1988). The murine adenocarcinoma CaNT was grown subcutaneously on the back of 12- to 16-week old CBA/Gy fTO mice. Tumors were initiated by the injection of 0.05 ml of a crude tumor cell suspension prepared from a donor mouse. Animals were selected for treatment after 3 or 4 weeks, when tumors had reached a geometric mean diameter of 5 to 6.5 mm. CA1P and CA4P were dissolved in 0.9% saline at various concentrations and injected intraperitoneally into tumor bearing mice. Each treatment group consisted of between five and nine mice. A control treatment group was injected with 0.9% saline. At 24 hours post-injection, each mouse was injected intravenously with a 10 mg/kg dose of the fluorescent DNA-binding dye Hoechst 333342 and sacrificed 1 minute later. Tumors were immediately excised and bisected. Frozen tumor sections were cut at three levels and viewed under UV excitation where the fluorescent staining of perivascular cells identified perfused vessels. Vascular volumes were quantified based on a random point scoring system previously described and incorporated by reference herein (Chalkley H W, J. Natl Cancer Institute, 4: 47-53, 1943). All estimates were based on counting 100 fields from sections cut at each of the 3 different levels and the calculated vascular volumes were expressed as a percentage of the mean value for control tumors.

[3] = tested on: murine adenocarcinoma CaNT; assay: Tumor growth control in CaNT murine tumor model; format: in vivo, mice; conditions: single doses of 100, 200, and 400 mg/kg i.p., FIG. 5
Protocol: The murine adenocarcinoma CaNT was grown subcutaneously on the back of 12- to 16-week old CBA/Gy fTO mice. Tumors were initiated by the injection of 0.05 ml of a crude tumor cell suspension prepared from a donor mouse. Animals were selected for treatment after 3 or 4 weeks, when tumors had reached a geometric mean diameter of 5 to 6.5 mm. CA1P and CA4P were dissolved in 0.9% saline at various concentrations and injected intraperitoneally into tumor bearing mice. Each treatment group consisted of between five and nine mice. A control treatment group was injected with 0.9% saline.

tumor xenografts = assay: Evaluation of tumor xenografts treated with CA1P; format: in vivo
Description: It is expected that in the highly oxygenated regions of the tumor, such as the tumor rim, that are resistant to tumor blood shutdown, CA1 is readily oxidized to its corresponding quinone, and is able to render a single agent response due to this second mechanism of action.

[4] = Stability of quinone product (TLC and NMR); format: physicochemical; conditions: in D7 DMF, following the initiation of the reaction
Protocol: To a solution of Combretastatin A-4 (0.032 g, 0.100 mmol; OXiGENE, Inc.) was added Iodoxybenzoic acid (0.028 g, 0.099 mmol) in D7 DMF (4 ml) with stirring by vortex for ½ hr. Completion of the reaction was indicated by the disappearance of the initial yellowish slurry and the appearance of a clear solution of a deep red color. ^1H-NMR was performed immediately as the quinone product was highly unstable and degraded within a ½ hr following the initiation of the reaction, as indicated by TLC and NMR.

[5] = Reaction of ortho-quinone with glutathione and ascorbate (stopped-flow, HPLC); format: physicochemical; conditions: stopped-flow rapid mixing, FIG. 1A
Description: The formation of each quinone was examined by reacting its corresponding catechol with excess FeCl3/H2SO4 and monitoring the reaction by HPLC. The identity of each quinone was confirmed by HPLC-MS (mass 330, λmax 312, 422 nm).

tubulin = conditions: cited from earlier work
[6] = cited from earlier work

For `COc1ccc(/C=C\c2cc(OC)c(OC)c(OC)c2)c(O)c1O` [CA1, Combretastatin A-1], the “Blood Flow at 10 mg/kg (% vessel area of control)” value (MHEC-5T tumors; 10 mg/kg, MHEC-5T tumor-bearing SCID mice, 24 hours after dosing) was 30 % vessel area of control, the IC50 (tumor cells; tumor cells treated for 24 hours) was 0.0046 µM and the recovery [1] was roughly 90%.

For `COc1cc(/C=C\c2ccc(OC)c(OP(=O)(O)O)c2OP(=O)(O)O)cc(OC)c1OC` [CA1P, Combretastatin A-1 diphosphate], the “ED50 (vascular effect)” value (MHEC-5T tumors; functional vessel number per mm^2, i.p., 24 hr, MHEC-5T tumors) was 3 mg/kg, the “blood flow in the peripheral region of tumors” value (MHEC-5T tumors; periphery = rim of width 10% of the tumor diameter) was “reduced the blood flow in the peripheral region as well” and the “reduction in tumor blood flow” value (MHEC-5T tumors; single i.p. injection 3 mg/kg, MHEC-5T tumors) was 50%. For the same compound, the “reduction in tumor blood flow” value (MHEC-5T tumors; single i.p. injection 6 mg/kg, MHEC-5T tumors) was 74%, the “reduction in tumor blood flow” value (MHEC-5T tumors; single i.p. injection 50 mg/kg, MHEC-5T tumors) was 90% and the “blood flow in the central region of tumors” value (MHEC-5T tumors; spatial distribution of blood vessel shutdown) was “blood flow reduction”. The “reduction of the percentage of functional vasculature in the tumor” value [2] was “over 50%”, the “effect on tumor growth” value [3] was “significant tumor growth delay” and the “antiproliferative activity against tumor cells in vitro” value (tumor cells; in comparison to CA4P) was “inferior”. The “tumor cell destruction by location” value (tumor xenografts) was “not only destroyed centrally located tumor cells but also cells located at the periphery of the tumor”.

For `COC1=CC=C(/C=C\c2cc(OC)c(OC)c(OC)c2)C(=O)C1=O` [CA-1 Ortho-Quinone], the “time to degradation of quinone product” value [4] was “½” and the “reaction with glutathione and ascorbate” value [5] was “react rapidly”.

For `COc1ccc(/C=C\c2cc(OC)c(OC)c(OC)c2)cc1O` [CA-4, Combretastatin A-4], the tubulin binding activity (tubulin) is given as “potent” and the “solubility in human plasma” value [6] is given as “insolubility”.
